Reference: publication PMC6696315, “Inhibiting Acetylcholinesterase to Activate Pleiotropic Prodrugs with Therapeutic Interest in Alzheimer’s Disease” (Molecules, 2019)
“And” between values parts separate entries of the source, which are not always exact repeats. Equal values may be shown once. “Also recorded” adds a separate entry of the source. Where a name gives a salt, the structure may show the parent alone.

How the values were obtained:
mice = test: CNS-activity and acute toxicity test; conditions: mice, IP
Method: Animals. Adult male NMRI mice (3 months old, weighing 35–40 g) from Janvier labs (Le Genest-Saint-Isle, France) were used to perform experiments. Mice were housed by ten in standard polycarbonate cages in standard controlled conditions (22 ± 2 °C, 55 ± 10% humidity) with a reversed 12 h light/dark cycle (light on at 7 pm). Food and water were available ad libitum in the home cage. All experiments were conducted (between 9 am and 3 pm) during the active–dark phase of the cycle and were in agreement with the European Directives and French law on animal experimentation (personal authorization n° 14–17 for MB and 14–60 for TF).
CNS-activity and acute toxicity test. Behavioral and neurological changes induced by graded doses (1, 10, 100 mg/kg) of the tested derivatives were evaluated in mice, in groups of four, by a standardized observation technique at different times (30 min, 3 and 24 h) after intraperitoneal administration. […] The approximate DL50 of the compounds were also calculated through the quantification of mortality after 24 h. Amphetamine (2 mg/kg) and chlorpromazine (10 mg/kg) were used as the stimulant and depressive references, respectively.

human 5-HT4R [1] = molecular target: T1, human 5-HT4R (Homo sapiens, UniProt Q13639); test: 5-HT4R radioligand displacement assay ([3H]-GR113808); format: binding; conditions: mean ± SEM of at least three experiments
T1 construct: purchased Eurofins HTS110M
T1 sequence (Q13639 whole entry): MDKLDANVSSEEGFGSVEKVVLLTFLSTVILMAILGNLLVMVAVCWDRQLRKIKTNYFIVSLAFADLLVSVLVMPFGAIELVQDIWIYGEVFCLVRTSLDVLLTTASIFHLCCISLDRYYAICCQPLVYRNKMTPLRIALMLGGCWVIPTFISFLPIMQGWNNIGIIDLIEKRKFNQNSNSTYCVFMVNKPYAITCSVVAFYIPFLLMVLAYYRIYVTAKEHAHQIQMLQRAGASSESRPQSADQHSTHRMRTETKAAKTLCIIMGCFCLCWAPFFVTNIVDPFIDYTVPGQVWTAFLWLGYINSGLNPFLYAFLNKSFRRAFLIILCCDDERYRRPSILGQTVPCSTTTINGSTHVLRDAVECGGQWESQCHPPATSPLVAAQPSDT

AChE [2] = molecular target: T2, AChE (Homo sapiens, UniProt P22303); test: AChE inhibition, Ellman assay; format: biochemical; parameters: AChE from human erythrocytes; purchased Sigma Aldrich; host or cells: human erythrocytes (natural source); conditions: for inhibition at 1 µM: read-out: (h)AChE % Inhibition at 10^−6 M; for AChE inhibitory activity: result in words
T2 sequence (P22303 32-617 isoform P22303-2 limits assumed): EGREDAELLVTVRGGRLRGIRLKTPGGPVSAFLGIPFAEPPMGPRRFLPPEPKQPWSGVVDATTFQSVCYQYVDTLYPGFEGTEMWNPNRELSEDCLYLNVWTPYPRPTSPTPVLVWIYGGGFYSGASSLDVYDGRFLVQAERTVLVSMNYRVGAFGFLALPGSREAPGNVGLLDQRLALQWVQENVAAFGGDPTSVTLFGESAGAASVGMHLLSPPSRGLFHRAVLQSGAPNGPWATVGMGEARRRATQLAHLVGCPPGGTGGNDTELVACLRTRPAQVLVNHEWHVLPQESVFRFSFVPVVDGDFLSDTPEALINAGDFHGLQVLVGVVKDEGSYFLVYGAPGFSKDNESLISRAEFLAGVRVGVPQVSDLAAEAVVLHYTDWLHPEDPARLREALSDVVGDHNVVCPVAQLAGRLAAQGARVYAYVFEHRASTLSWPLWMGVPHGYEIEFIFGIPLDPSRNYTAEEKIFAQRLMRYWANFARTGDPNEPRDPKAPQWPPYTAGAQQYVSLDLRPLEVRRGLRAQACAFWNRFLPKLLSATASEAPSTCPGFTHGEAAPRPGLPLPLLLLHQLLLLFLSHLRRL
Method: All the synthesized phenolic derivatives and their carbamates were evaluated as potential inhibitors of human AChE, using the Ellman assay, as well as potential ligands for human 5-HT4R using a radioligand displacement assay.
The inhibitory capacity of compounds on AChE biological activity was evaluated through the use of the spectrometric method of Ellman. Acetylthiocholine iodide and 5,5-dithiobis-(2-nitrobenzoic) acid (DTNB) were purchased from Sigma Aldrich. AChE from human erythrocytes (buffered aqueous solution, ≥500 units/mg protein (BCA), Sigma Aldrich, St. Louis, MO, USA) was diluted in 20 mM HEPES buffer pH 8, 0.1% Triton X-100 such as to have enzyme solution with 0.25 unit/mL enzyme activity. In the procedure, 100 μL of 0.3 mM DTNB dissolved in a phosphate buffer with pH 7.4 were added into the 96-well plates followed by 50 μL of the test compound solution and 50 μL of enzyme (0.05 U final). After 5 min of preincubation at 25 °C, the reaction was then initiated by the injection of 50 μL of 10 mM acetylthiocholine iodide solution. […] Assays were performed with a blank containing all components except acetylthiocholine, in order to account for non-enzymatic reactions. The reaction slopes were compared and the percent inhibition due to the presence of test compounds was calculated by the following expression: 100 − (vi/v0 × 100), where vi is the rate calculated in the presence of inhibitor and v0 is the enzyme activity.

human 5-HT4R [3] = molecular target: T1, human 5-HT4R; test: 5-HT4R radioligand displacement assay ([3H]-GR113808); format: binding; conditions: for 5-HT4R affinity: result in words
Method: All the synthesized phenolic derivatives and their carbamates were evaluated as potential inhibitors of human AChE, using the Ellman assay, as well as potential ligands for human 5-HT4R using a radioligand displacement assay. […].
For competition studies, 2.5 µg of proteins (5-HT4(b) membrane preparations, HTS110M, Eurofins. Eurofins’ 5-HT4(b) membrane preparations are crude membrane preparations made from their proprietary stable recombinant cell lines to ensure high-level of GPCR surface expression.) were incubated in duplicate at 25 °C for 60 min in the absence or the presence of 10^−6 or 10^−8M of each drug (9 was used as a reference standard) and 0.2 nM [^3H]-GR113808 (NET 1152, Perkin Elmer) in 25 mM Tris buffer (pH 7.4, 25 °C). At the end of the incubation, homogenates were filtered through Whatman GF/C filters (Alpha Biotech) pre-soaked with 0.5% polyethylenimine using a Brandel cell harvester. Filters were subsequently washed three times with 1 mL of ice-cold 25 mM Tris buffer (pH 7.4, 4 °C). Non-specific binding was evaluated in parallel in the presence of 30 µM serotonin. For some of these compounds, affinity constants were calculated from five-point inhibition curves using the GraphPad Prism 6 software and expressed as Ki ± SD.

AChE [4] = molecular target: T2, AChE; test: Kinetic study for AChE inhibition (Lineweaver-Burk plots); format: biochemical
Method: To try to clarify the mechanism of action of 19 and 20, reciprocal plots of 1/velocity vs. 1/[substrate] were constructed at different concentrations of the substrate acetylthiocholine iodide (0.01–1 mM) by using the spectrometric method by Ellman et al.. Four concentrations of 19 were selected for the studies: 10^−6, 10^−7, 10^−8 and 10^−9 M for the kinetic analysis of AChE inhibition. Four concentrations of 20 were selected for the studies: 10^−5, 10^−6, 10^−7 and 10^−8 M for the kinetic analysis of AChE inhibition. The plots were assessed by a weighted least squares analysis that assumed the variance of velocity (ν) to be a constant percentage of ν for the entire dataset. Slopes of these reciprocal plots were then plotted against the concentration of 19 and 20 in a weighted analysis.

(h)5-HT4(a) receptors = molecular target: T3, (h)5-HT4(a) receptors (Homo sapiens, UniProt Q13639); test: cAMP production in COS-7 cells transfected with 5-HT4R; format: cell-based
T3 construct: HA; expressed in transfected cells; host or cells: COS-7
T3 sequence (Q13639 1-387 isoform Q13639-2): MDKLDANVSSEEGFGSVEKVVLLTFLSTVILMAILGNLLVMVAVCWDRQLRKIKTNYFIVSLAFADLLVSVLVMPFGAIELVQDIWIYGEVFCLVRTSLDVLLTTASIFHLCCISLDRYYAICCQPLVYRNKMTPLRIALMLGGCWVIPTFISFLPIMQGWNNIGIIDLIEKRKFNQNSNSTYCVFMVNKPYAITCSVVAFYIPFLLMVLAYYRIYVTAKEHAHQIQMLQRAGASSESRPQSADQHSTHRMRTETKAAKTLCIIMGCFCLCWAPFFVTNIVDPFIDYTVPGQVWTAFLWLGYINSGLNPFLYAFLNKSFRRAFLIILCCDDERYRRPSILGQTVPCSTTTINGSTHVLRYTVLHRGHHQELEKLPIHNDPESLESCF
Method: COS-7 cells were grown in Dulbecco’s modified Eagle medium (DMEM) supplemented with 10% dialyzed fetal calf serum (dFCS) and antibiotics. Cells were transiently transfected by electroporation with plasmids encoding HA-tagged 5-HT4R (100 ng/10^6 cells), then seeded in 96-well plates (16,000 cells/well). […] After 10 min, cells were then lysed by the addition of the same volume of Triton-X100 (0.1%). Quantification of cAMP production was performed by HTRF® using the cAMP Dynamic kit (Cisbio Bioassays, Codolet, France) according to the manufacturer’s instructions.

rodents [5] = conditions: cited from earlier work
rodents [6] = conditions: various tests; cited from earlier work
[7] = (h)AChE IC50, Ellman assay, mean ± SEM of at least two experiments

SMILES: C[C@H](N)Cc1ccccc1 [Amphetamine, (+)-α-Methylphenethylamine hemisulfate, reference compound]
- Symptoms (Subtoxic Doses) (mice; 2 mg/kg, stimulant reference): Hyperactivity, exophtalmy, irritability

SMILES: CN(C)CCCN1c2ccccc2Sc2ccc(Cl)cc21 [Chlorpromazine, chlorpromazine hydrochloride, reference compound]
- Symptoms (Subtoxic Doses) (mice; 10 mg/kg, depressive reference): Hypoactivity, ataxia, sleep

SMILES: COc1cc(N)c(Cl)cc1C(=O)CCC1CCN(Cc2cccc(O)c2)CC1 [Compound 4, 1-(4-Amino-5-chloro-2-methoxyphenyl)-3-[1-[(3-hydroxyphenyl)methyl]-4-piperidyl]propan-1-one]
- Ki (human 5-HT4R [1]): 5.1 ± 1.1 nM
- IC50 (AChE [2]; [7]): 148 nM and 149 nM

SMILES: COc1cc(N)c(Cl)cc1C(=O)OCC1CCN(Cc2cccc(O)c2)CC1 [Compound 5, [1-[(3-Hydroxyphenyl)methyl]-4-piperidyl]methyl 4-amino-5-chloro-2-methoxybenzoate]
- Ki (human 5-HT4R [1]): 0.6 ± 0.4 nM
- inhibition at 1 µM (AChE [2]): 11%
- AChE inhibitory activity (AChE [2]): devoid of any AChE inhibitory activities; also recorded: absent

SMILES: COc1cc(N)c(Cl)cc1C(=O)NCC1CCN(Cc2cccc(O)c2)CC1 [Compound 6, 4-Amino-5-chloro-N-[[1-[(3-hydroxyphenyl)methyl]-4-piperidyl]methyl]-2-methoxybenzamide]
- Ki (human 5-HT4R [1]): 5.8 ± 1.2 nM
- inhibition at 1 µM (AChE [2]): 4%
- AChE inhibitory activity (AChE [2]): devoid of any AChE inhibitory activities; also recorded: absent

SMILES: CCN(C)C(=O)Oc1cccc(CN2CCC(CCC(=O)c3cc(Cl)c(N)cc3OC)CC2)c1 [Compound 7, [3-[[4-[3-(4-Amino-5-chloro-2-methoxyphenyl)-3-oxopropyl]-1-piperidyl]methyl]phenyl] N-ethyl-N-methyl-carbamate]
- (h)5-HT4R % Inhibition at 10^−8 M (human 5-HT4R [3]; 10^−8 M): 3%
- 5-HT4R affinity (human 5-HT4R [3]): devoid of any activity towards 5-HT4R
- IC50 (AChE [2]; [7]): 4150 ± 794 nM
- IC50 (AChE [2]; AChE IC50, value in text): 4150 nM

SMILES: CCN(C)C(=O)Oc1cccc(CN2CCC(COC(=O)c3cc(Cl)c(N)cc3OC)CC2)c1 [Compound 8, [1-[[3-[Ethyl(methyl)carbamoyl]oxyphenyl]methyl]-4-piperidyl]methyl 4-amino-5-chloro-2-methoxybenzoate]
- inhibition at 0.01 µM (human 5-HT4R [3]; 10^−8 M): 23%
- 5-HT4R affinity (human 5-HT4R [3]): devoid of any activity towards 5-HT4R
- IC50 (AChE [2]; [7]): 16300 nM

SMILES: CCN(C)C(=O)Oc1cccc(CN2CCC(CNC(=O)c3cc(Cl)c(N)cc3OC)CC2)c1 [Compound 9, [3-[[4-[[(4-Amino-5-chloro-2-methoxybenzoyl)amino]methyl]-1-piperidyl]methyl]phenyl] N-ethyl-N-methyl-carbamate]
- inhibition at 0.01 µM (human 5-HT4R [3]; 10^−8 M): 13%
- 5-HT4R affinity (human 5-HT4R [3]): devoid of any activity towards 5-HT4R
- IC50 (AChE [2]; [7]): 10100 nM

SMILES: COc1cc(N)c(Cl)cc1C(=O)CCC1CCN(Cc2cccc(O)c2)CC1.O=C(O)/C=C/C(=O)O [Compound 19, 1-(4-Amino-5-chloro-2-methoxyphenyl)-3-[1-[(3-hydroxyphenyl)methyl]-4-piperidyl]propan-1-one fumaric acid salt]
- Ki (human 5-HT4R [1]): 6.9 ± 1.2 nM
- IC50 (AChE [2]; [7]): 72 ± 1.4 nM
- mechanism of AChE inhibition (AChE [4]): non-competitive AChE inhibitor; also recorded: non-competitive-type
- % Control Agonist Response ((h)5-HT4(a) receptors; 5-HT as control 5-HT4R agonist, mean ± SEM): 59.0 ± 3.9%
- Profile ((h)5-HT4(a) receptors; (h)5-HT4(a) pharmacological profile): partial 5-HT4R agonist
- EC50 ((h)5-HT4(a) receptors; given as Log(EC50), negative values, mean ± SEM): 0.126 nM

SMILES: CCN(C)C(=O)Oc1cccc([C@H](C)N(C)C)c1 [Rivastigmine]
- effect on memory deficits induced by MK 801 (rodents [5]): ineffective in improving memory deficits induced by MK 801
- effect on scopolamine-induced memory performance deficit (rodents [6]): counterbalance scopolamine-induced memory performance deficit
